Measurements as given in patent US7723417B2, “Fluorochemical composition and method for treating a substrate therewith” (3M Innovative Properties Company, priority 2004, dated 2010).
Structures can show the parent of a compound that is named as a salt.

experiment: Water solubility of an additive; type: physicochemical; details: 25° C., demineralized water
Protocol: The water solubility of an additive was determined at ambient conditions (25° C.) in demineralized water. Measured quantities of additive and demineralized water were combined and shaken for up to two hours. The additive was deemed soluble if a clear solution resulted; the additive was otherwise deemed insoluble. The water solubility of an additive is the maximum concentration of additive producing a clear solution in water.

Row | Solubility H2O [w %] | Compound
1 | <0.1 | CCCCOC(=O)CC(CC(=O)OCCCC)(OC(C)=O)C(=O)OCCCC [ATBC, Acetyl tributyl citrate]
2 | 0.2 | CCCCOC(=O)CC(O)C(=O)OCCCC (stereo not drawn) [DBM, Dibutyl malate]
3 | 0.8 | CCCCOC(=O)C(O)C(O)C(=O)OCCCC (stereo not drawn) [DBT, Dibutyl tartarate]
4 | >10 | CCOC(=O)CC(O)C(=O)OCC (stereo not drawn) [DEM, Diethyl malate]
5 | >10 | CC(C)OC(=O)C(O)C(O)C(=O)OC(C)C (stereo not drawn) [DIPT, Diisopropyl tartarate]
6 | 0.4 | C=C(C)C(=O)OCC(CO)OC(=O)C(=C)C (stereo not drawn) [GDM, Glycerol dimethacrylate]
7 | <0.05 | CCCCOC(=O)CC(O)(CC(=O)OCCCC)C(=O)OCCCC [TBC, Tributyl citrate]
8 | 6 | COC(=O)CC(O)(CC(=O)OC)C(=O)OC [TMC, Trimethyl citrate]
9 | 3 | C4H9(OC3H6)3—OH [DTPnB]
